By IC50 is commonly meant the concentration that gives 50% inhibition.

Like-named read-outs stand apart in the source and are kept apart here.

For four compounds, IC50 results are on record in article PMC11361161 (BMC Chemistry, 2024).

This assay deals with human thymidylate synthase (hTS) (Homo sapiens, UniProt P04818). The assay can be described thus: Thymidylate synthase inhibitory assay. It is filed as biochemical.
Chain of human thymidylate synthase (hTS) (P04818 whole entry): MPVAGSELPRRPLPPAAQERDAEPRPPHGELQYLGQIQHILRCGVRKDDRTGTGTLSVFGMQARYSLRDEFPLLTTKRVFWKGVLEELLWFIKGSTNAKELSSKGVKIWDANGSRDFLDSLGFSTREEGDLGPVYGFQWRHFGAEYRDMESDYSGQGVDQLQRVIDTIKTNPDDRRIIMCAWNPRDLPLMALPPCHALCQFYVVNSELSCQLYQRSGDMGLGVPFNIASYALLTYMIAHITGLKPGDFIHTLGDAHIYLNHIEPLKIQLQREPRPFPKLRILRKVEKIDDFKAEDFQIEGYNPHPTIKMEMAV

`COc1ccc(-c2cc(-c3ccc4ccccc4c3)c3c(=O)[nH]c(=O)[nH]c3n2)cc1` [Compound 1n, 7-(4-methoxyphenyl)-5-(naphthalen-2-yl)pyrido[2,3-d]pyrimidine-2,4(1 H,3 H)-dione]: inhibition was half-maximal at 20.5 ± 1.09 nM (IC50).

As for `COc1ccc(-c2cc(-c3ccc(N(C)C)cc3)c3c(=O)[nH]c(=O)[nH]c3n2)cc1` [Compound 1j, 5-(4-(dimethylamino)phenyl)-7-(4-methoxyphenyl)pyrido[2,3-d]pyrimidine-2,4(1 H,3 H)-dione], the half-maximal inhibitory concentration (IC50) is 20.5 ± 1.09 nM.

Compound `COc1ccc(-c2cc(-c3ccc(N(C)C)cc3)c3c(=O)n(C)c(=O)n(C)c3n2)cc1` [Compound 2j, 5-(4-(dimethylamino)phenyl)-7-(4-methoxyphenyl)-1,3-dimethylpyrido[2,3-d]pyrimidine-2,4(1 H,3 H)-dione] displayed an IC50 of 13.5 ± 0.96 nM.

As for “7-(4-methoxyphenyl)-1,3-dimethyl-5-(naphthalen-2-yl)pyrido[2,3-d]pyrimidine-2,4(1 H,3 H)-dione [Compound 2n]”, the IC50 (read-out: In vitro thymidylate synthase (TS) IC50, 30 °C, pH 7.4, 30 nM hTS, absorbance at 340 nm, mean ± SEM, triplicate) was 13.5 ± 0.96 nM.
